Test results from patent publication US20250154525A1, “PLANT VIRUS MOVEMENT PROTEINS AND METHODS OF USING SAME” (Molecular Transfer, Inc., priority 2016, published 2025).

Legend:
some examined cell types = experiment: Summary of Example 1: transfection expression and % cells transfected over the no peptide control; type: cell-based; conditions: on some examined cell types
Method: (§1) Cells were plated to so that on the day of transfection the cells were 70% confluent in 96 well tissue culture plates. A DOMTA/DOPE Lipid solution (1:1 molar ratio) at 2 mg/mL in water were mixed with an equal volume cell surface ligand containing adhesion peptide, the plant virus movement protein, or peptide derived therefrom, that had the nucleic acid binding moiety RRRRRRRRRRRR (SEQ ID NO:109) or KKKKKKKKKKKKKKKK (SEQ ID NO: 102) covalently linked to the N-terminus, or C-terminus of each peptide during peptide synthesis. Peptides were at 2 mg/mL in water. The DOTMA/DOPE and the solution containing the cell surface ligand containing adhesion peptide, the plant virus movement protein, or peptide derived therefrom, surface ligand peptide the was diluted 1 to 1 (v/v) in water. DOMTA/DOPE/PEPTIDE solutions were added to 0.1 mL of a plasmid DNA solution (EF1Alpha eGFP plasmid) at 10 μg/mL in OptiMEM.
(§2) All solutions were at room temperature. A volume of 0.2 mL of a 10 μg/mL solution of DNA was aliquoted into each well of a non-tissue cultured treated plate. 1-12 μL of transfection reagents were added to DNA solutions respectively. The transfection reagent and DNA solution was mixed by pipetting up and down twice. Transfection complexes were formed for 10 minutes. After 10 minutes, 0.01 or 0.02 mL of the transfection complex was added to cells. HuVEC, HeLa, human adult keratinocytes, human primary adult fibroblast, and A549 cells all respectively received 0.01 mL of the transfection complex. Human skeletal muscle cells, mouse C2C12 cells, and Jurkat, cells received 0.02 mL of the transfection complex. Cells were incubated for 42 hours at 37° C. at 5% CO2. Plates were read on a fluorescent plate reader. Cells were also examined visually under a microscope to assess the extent of transfection (in terms of the percent of cells transfected) with a fluorescent microscope. Other modes of analysis, for example quantification with B-galactocidase or luciferase reports plasmids can also be used.
(§3) Surface ligand that caused increase expression of GFP over the lipid DOTMA with no surface ligand were considered to enhance transfection or had higher % cells transfected were considered to enhance transfection. Peptides that gave greater than 2-fold enhancement are noted in bold and could be further optimized by adding different transfection enhancers or could be used with different cationic lipids or polymers.

C2C12 Cells = experiment: GFP plasmid transfection with DOTMA/DOPE plus surface ligand peptide, fluorescent plate reader (Example 1); type: cell-based, mouse; conditions: DOTMA/DOPE + peptide linked to R12 or K16; EF1Alpha eGFP plasmid; 42 hours
Method: as §1, §2, §3
(§4) Tables 2-7, below, provide the results of the transfection enhancements with the various cell types, while Table 8 lists the peptides that were determined by visual inspection to enhance the transfection of the denoted cell lines over the lipid DOTMA.

Human Fibroblast Cells = experiment: as above; type: cell-based; conditions: DOTMA/DOPE + peptide linked to R12 or K16; EF1Alpha eGFP plasmid; 42 hours
Method: as §1, §2, §3, §4

HuVec Cells = experiment: as above; type: cell-based; conditions: DOTMA/DOPE + peptide linked to R12 or K16; EF1Alpha eGFP plasmid; 42 hours
Method: as §1, §2, §3, §4

HeLa Cells = experiment: as above; type: cell-based; conditions: DOTMA/DOPE + peptide linked to R12 or K16; EF1Alpha eGFP plasmid; 42 hours
Method: as §1, §2, §3, §4

Jurkat Cells = experiment: as above; type: cell-based; conditions: DOTMA/DOPE + peptide linked to R12 or K16; EF1Alpha eGFP plasmid; 42 hours
Method: as §1, §2, §3, §4

NL-1 iPS Cells = experiment: as above; type: cell-based; conditions: DOTMA/DOPE + peptide linked to R12 or K16; EF1Alpha eGFP plasmid; 42 hours
Method: as §1, §2, §3, §4

Substance	transfection expression and % cells transfected over the no peptide control (some examined cell types)	Relative Fluorescence of Transfection of C2C12 Cells (RF) (C2C12 Cells)	Relative Fluorescence of Transfection of Human Fibroblast Cells (RF) (Human Fibroblast Cells)	Relative Fluorescence of Transfection of HuVec Cells (RF) (HuVec Cells)	Relative Fluorescence of Transfection of HeLa Cells (RF) (HeLa Cells)	Relative Fluorescence of Transfection of Jurkat Cells (RF) (Jurkat Cells)	Relative Fluorescence of Transfection of NL-1 iPS Cells (RF) (NL-1 iPS Cells)
239 (KNSFMALYLSKGRLVFALG) [compound 239]	increased transfection expression and the % cells transfected	10620	4084	1404	2717	2343	4129
205 (AASIKVAVSADR) [compound 205]	increased transfection expression and the % cells transfected	2102	8550	8309	26368	2298	13140
352 (RIQNLLKITNLRIKFVK) [compound 352]	increased transfection expression and the % cells transfected	3324	3059	3130	32126	3150	11628
226 (ANGQTPIQRYIK) [compound 226]	increased transfection expression and the % cells transfected	1664	3431	20864	7340	12976	24920
345 (TAGSCLRKFSTMFLF) [compound 345]	increased transfection expression and the % cells transfected	6569	2816	2939	8493	2462	7836
216 (YRVRVTPKEKTGPMKE) [compound 216]	increased transfection expression and the % cells transfected	1001	3117	14693	6181	3570	19626
332 (TWYKIAFQRNRK) [compound 332]	increased transfection expression and the % cells transfected	537	5178	4221	9198	3052	8725
354 (SINNTAVMQRLT) [compound 354]	increased transfection expression and the % cells transfected	1912	4998	19284	4403	16705	24043
327 (VAEIDGIEL) [compound 327]	increased transfection expression and the % cells transfected	2043	4662	21018	5345	14546	31383
359 (KAFDITYVRLKF) [compound 359]	increased transfection expression and the % cells transfected	5693	3206	3024	3136	1880	5548
220 (ATETTITIS) [compound 220]	increased transfection expression and the % cells transfected	1470	4516	8737	9398	6428	15892
